{"source": "patent US9408854B2", "about": "“Methods and systems for pharmacogenomic treatment of cardiovascular conditions” (ROSTAQUO S.P.A., priority 2009, dated 2016)", "key": {"Na—K Pump and cSrc [1]": {"test_system": "Na—K Pump and cSrc", "test": "In vitro correction of the effect of mutated adducin or ouabain on Na-K pump and cSrc", "assay_type": "biochemical", "conditions": "picomolar concentrations in vitro"}, "Na—K Pump and cSrc [2]": {"test_system": "Na—K Pump and cSrc", "test": "Correction of the effect of mutated adducin or ouabain on Na-K pump and cSrc in animals", "assay_type": "in vivo", "conditions": "nanomoles doses in animals"}, "[3]": {"test": "Maximal tolerated dose without any effects (NOAEL) in animals", "conditions": "in vivo, read-out: maximal tolerated dose that does not produce any effects (NOAEL)"}, "hypertensive patients": {"test_system": "hypertensive patients", "test": "Pharmacogenomic study: change of office systolic blood pressure (DSBP5_0) after 5 weeks of rostafuroxin vs placebo, by genotype", "assay_type": "in vivo, human", "conditions": "0.05 to 0.50 mg/day vs 1.5 to 5 mg/day"}}, "data": [{"smiles": "C[C@]12CC[C@H](O)C[C@H]1CC[C@@H]1[C@@H]2CC[C@]2(C)[C@@](O)(c3ccoc3)CC[C@]12O", "note": "[rostafuroxin, 17β-(3-furyl)-5β-androstane-3β,14β,17α-triol]", "values": [{"measurement": "correction of the effect of mutated adducin or ouabain on Na—K Pump and cSrc", "setting": "Na—K Pump and cSrc [1]", "result": "able to selectively correct the effect of mutated adducin or ouabain on Na—K Pump and cSrc, without blocking the effect of wild adducin"}, {"measurement": "correction of the effect of mutated adducin or ouabain on Na—K Pump and cSrc", "setting": "Na—K Pump and cSrc [2]", "result": "able to selectively correct the effect of mutated adducin or ouabain on Na—K Pump and cSrc, without blocking the effect of wild adducin"}, {"measurement": "NOAEL", "setting": "[3]", "result": 100, "unit": "mg/kg"}, {"measurement": "drop of night blood pressure, low doses vs high doses", "setting": "hypertensive patients", "result": "relevantly higher drop of night blood pressure as compared to high doses"}]}]}
